{"source": "patent US12473250B2", "about": "“Molecular design of new antibiotics and antibiotic adjuvants against MCR strains” (priority 2019, dated 2025)", "assay_type_in_all_cases": "cell-based", "key": {"[1]": {"tested_on": "colistin resistant MCR (+) E. Coli strains", "test": "MIC, broth microdilution, compound alone", "details": "compound alone", "how_it_was_run": "(§1)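 Wells held ~5×10^5 CFU/mL of bacteria prepared to 0.5 McFarland from overnight TSA colonies and exposed to serially diluted agents, following modified CLSI microdilution. After 24 h at 35 °C, growth judged by turbidity (OD600 possible); 99% inhibition sets the MIC.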"}, "[2]": {"tested_on": "colistin resistant MCR (−) E. Cloacae strain 7023456439", "test": "MIC, broth microdilution, compound alone", "details": "strain 7023456439 E. Cloacae", "how_it_was_run": "as §1"}, "[3]": {"tested_on": "colistin resistant MCR (−) E. Coli strains", "test": "MIC, broth microdilution, compound alone", "how_it_was_run": "as §1"}, "[4]": {"tested_on": "colistin resistant MCR (+) E. Coli strains", "test": "Synergy study: colistin MIC in the presence of compound", "how_it_was_run": "(§2)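 After 24 hours, MIC was read as the lowest concentration without visible growth. Drugs were tested singly and in combination by CLSI broth microdilution, equal-amount colistin:LC compound mixtures serially diluted 2-fold at a fixed synergy concentration.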"}, "[5]": {"tested_on": "colistin resistant MCR (−) E. Cloacae strain 7023456439", "test": "Synergy study: colistin MIC in the presence of compound", "details": "strain 7023456439 E. Cloacae", "how_it_was_run": "as §2"}, "[6]": {"tested_on": "colistin resistant MCR (−) E. Coli strains", "test": "Synergy study: colistin MIC in the presence of compound", "how_it_was_run": "as §2"}, "[7]": {"details": "strain 6075066346, MCR(+), compound at 10 μg (Table 2a: 10 ug/ml)"}, "[8]": {"details": "strain 6083655967, MCR(+), compound at 10 μg (Table 2a: 10 ug/ml)"}, "[9]": {"details": "strain 6103645107, MCR(+), compound at 10 μg (Table 2a: 10 ug/ml)"}, "[10]": {"details": "strain 6123520276, MCR(+), compound at 10 μg (Table 2a: 10 ug/ml)"}, "[11]": {"details": "strain 7013177695, MCR(+), compound at 10 μg (Table 2a: 10 ug/ml)"}, "[12]": {"details": "strain 7023436560, MCR(+), compound at 10 μg (Table 2a: 10 ug/ml)"}, "[13]": {"details": "strain 7023444207, MCR(+), compound at 10 μg (Table 2a: 10 ug/ml)"}, "[14]": {"details": "compound at 10 μg (Table 2a: 10 ug/ml)"}, "[15]": {"details": "strain 6083672926, MCR(−), compound at 10 μg (Table 2a: 10 ug/ml)"}, "[16]": {"details": "strain 7023446108, MCR(−), compound at 10 μg (Table 2a: 10 ug/ml)"}, "[17]": {"details": "strain 7033607097, MCR(−), compound at 10 μg (Table 2a: 10 ug/ml)"}}, "data": [{"smiles": "CC1(C)C=Cc2c(ccc3c2OCC(c2ccc(OCCCC[n+]4ccccc4)cc2OCCCC[n+]2ccccc2)C3)O1", "note": "(stereo not drawn) [LC370]", "values": [{"measurement": "MIC", "setting": "[1]; strain 6075066346, MCR (+)", "value": 50, "unit": "µg/mL"}, {"measurement": "MIC", "setting": "[1]; strain 6083655967, MCR (+)", "value": 50, "unit": "µg/mL"}, {"measurement": "MIC", "setting": "[1]; strain 6103645107, MCR (+)", "value": 50, "unit": "µg/mL"}, {"measurement": "MIC", "setting": "[1]; strain 6123520276, MCR (+)", "value": 50, "unit": "µg/mL"}, {"measurement": "MIC", "setting": "[1]; strain 7013177695, MCR (+)", "value": 50, "unit": "µg/mL"}, {"measurement": "MIC", "setting": "[1]; strain 7023436560, MCR (+)", "value": 50, "unit": "µg/mL"}, {"measurement": "MIC", "setting": "[1]; strain 7023444207, MCR (+)", "value": 50, "unit": "µg/mL"}, {"measurement": "MIC", "setting": "[2]", "value": ">50", "unit": "µg/mL"}, {"measurement": "MIC", "setting": "[3]; strain 6083672926, MCR (−)", "value": 25, "unit": "µg/mL"}, {"measurement": "MIC", "setting": "[3]; strain 7023446108, MCR (−)", "value": 25, "unit": "µg/mL"}, {"measurement": "MIC", "setting": "[3]; strain 7033607097, MCR (−)", "value": 25, "unit": "µg/mL"}, {"measurement": "Colistin MIC in the presence of the compound", "setting": "[4]; [7]", "value": 0.195, "unit": "µg/mL"}, {"measurement": "Colistin MIC in the presence of the compound", "setting": "[4]; [8]", "value": 0.39, "unit": "µg/mL"}, {"measurement": "Colistin MIC in the presence of the compound", "setting": "[4]; [9]", "value": 0.195, "unit": "µg/mL"}, {"measurement": "Colistin MIC in the presence of the compound", "setting": "[4]; [10]", "value": 0.195, "unit": "µg/mL"}, {"measurement": "Colistin MIC in the presence of the compound", "setting": "[4]; [11]", "value": 0.195, "unit": "µg/mL"}, {"measurement": "Colistin MIC in the presence of the compound", "setting": "[4]; [12]", "value": 0.195, "unit": "µg/mL"}, {"measurement": "Colistin MIC in the presence of the compound", "setting": "[4]; [13]", "value": 0.195, "unit": "µg/mL"}, {"measurement": "Colistin MIC in the presence of the compound", "setting": "[5]; [14]", "value": ">12.5", "unit": "µg/mL"}, {"measurement": "Colistin MIC in the presence of the compound", "setting": "[6]; [15]", "value": ">12.5", "unit": "µg/mL"}, {"measurement": "Colistin MIC in the presence of the compound", "setting": "[6]; [16]", "value": 0.195, "unit": "µg/mL"}, {"measurement": "Colistin MIC in the presence of the compound", "setting": "[6]; [17]", "value": 0.195, "unit": "µg/mL"}]}, {"smiles": "CN(C)CCCN(C)CCCCOc1ccc(C2COc3c(ccc4c3C=CC(C)(C)O4)C2)c(OCCCCN(C)CCCN(C)C)c1", "note": "(stereo not drawn) [LC096]", "values": [{"measurement": "MIC", "setting": "[1]; strain 6075066346, MCR (+)", "value": 25, "unit": "µg/mL"}, {"measurement": "MIC", "setting": "[1]; strain 6083655967, MCR (+)", "value": 25, "unit": "µg/mL"}, {"measurement": "MIC", "setting": "[1]; strain 6103645107, MCR (+)", "value": 12.5, "unit": "µg/mL"}, {"measurement": "MIC", "setting": "[1]; strain 6123520276, MCR (+)", "value": 25, "unit": "µg/mL"}, {"measurement": "MIC", "setting": "[1]; strain 7013177695, MCR (+)", "value": 25, "unit": "µg/mL"}, {"measurement": "MIC", "setting": "[1]; strain 7023436560, MCR (+)", "value": 25, "unit": "µg/mL"}, {"measurement": "MIC", "setting": "[1]; strain 7023444207, MCR (+)", "value": 25, "unit": "µg/mL"}, {"measurement": "MIC", "setting": "[2]", "value": ">25", "unit": "µg/mL"}, {"measurement": "MIC", "setting": "[3]; strain 6083672926, MCR (−)", "value": 12.5, "unit": "µg/mL"}, {"measurement": "MIC", "setting": "[3]; strain 7023446108, MCR (−)", "value": 25, "unit": "µg/mL"}, {"measurement": "MIC", "setting": "[3]; strain 7033607097, MCR (−)", "value": 12.5, "unit": "µg/mL"}, {"measurement": "Colistin MIC in the presence of the compound", "setting": "[4]; strain 6075066346, MCR(+), compound at 5 μg (Table 2a: 5 ug/ml)", "value": "<0.195", "unit": "µg/mL"}, {"measurement": "Colistin MIC in the presence of the compound", "setting": "[4]; strain 6083655967, MCR(+), compound at 5 μg (Table 2a: 5 ug/ml)", "value": "<0.195", "unit": "µg/mL"}, {"measurement": "Colistin MIC in the presence of the compound", "setting": "[4]; strain 6103645107, MCR(+), compound at 5 μg (Table 2a: 5 ug/ml)", "value": "<0.195", "unit": "µg/mL"}, {"measurement": "Colistin MIC in the presence of the compound", "setting": "[4]; strain 6123520276, MCR(+), compound at 5 μg (Table 2a: 5 ug/ml)", "value": "<0.195", "unit": "µg/mL"}, {"measurement": "Colistin MIC in the presence of the compound", "setting": "[4]; strain 7013177695, MCR(+), compound at 5 μg (Table 2a: 5 ug/ml)", "value": "<0.195", "unit": "µg/mL"}, {"measurement": "Colistin MIC in the presence of the compound", "setting": "[4]; strain 7023436560, MCR(+), compound at 5 μg (Table 2a: 5 ug/ml)", "value": "<0.195", "unit": "µg/mL"}, {"measurement": "Colistin MIC in the presence of the compound", "setting": "[4]; strain 7023444207, MCR(+), compound at 5 μg (Table 2a: 5 ug/ml)", "value": "<0.195", "unit": "µg/mL"}, {"measurement": "Colistin MIC in the presence of the compound", "setting": "[5]; compound at 5 μg (Table 2a: 5 ug/ml)", "value": ">25", "unit": "µg/mL"}, {"measurement": "Colistin MIC in the presence of the compound", "setting": "[6]; strain 6083672926, MCR(−), compound at 5 μg (Table 2a: 5 ug/ml)", "value": "<0.195", "unit": "µg/mL"}, {"measurement": "Colistin MIC in the presence of the compound", "setting": "[6]; strain 7023446108, MCR(−), compound at 5 μg (Table 2a: 5 ug/ml)", "value": "<0.195", "unit": "µg/mL"}, {"measurement": "Colistin MIC in the presence of the compound", "setting": "[6]; strain 7033607097, MCR(−), compound at 5 μg (Table 2a: 5 ug/ml)", "value": "<0.195", "unit": "µg/mL"}]}, {"smiles": "Cc1cc(OCCCCC[N+](C)(C)C)cc(OCCCCC[N+](C)(C)C)c1", "note": "[LC310]", "values": [{"measurement": "MIC", "setting": "[1]; strain 6075066346, MCR (+)", "value": ">50", "unit": "µg/mL"}, {"measurement": "MIC", "setting": "[1]; strain 6083655967, MCR (+)", "value": ">50", "unit": "µg/mL"}, {"measurement": "MIC", "setting": "[1]; strain 6103645107, MCR (+)", "value": ">50", "unit": "µg/mL"}, {"measurement": "MIC", "setting": "[1]; strain 6123520276, MCR (+)", "value": ">50", "unit": "µg/mL"}, {"measurement": "MIC", "setting": "[1]; strain 7013177695, MCR (+)", "value": ">50", "unit": "µg/mL"}, {"measurement": "MIC", "setting": "[1]; strain 7023436560, MCR (+)", "value": ">50", "unit": "µg/mL"}, {"measurement": "MIC", "setting": "[1]; strain 7028444207 (Table 1b), MCR (+)", "value": ">50", "unit": "µg/mL"}, {"measurement": "MIC", "setting": "[2]", "value": ">50", "unit": "µg/mL"}, {"measurement": "MIC", "setting": "[3]; strain 6083672926, MCR (−)", "value": ">50", "unit": "µg/mL"}, {"measurement": "MIC", "setting": "[3]; strain 7023446108, MCR (−)", "value": ">50", "unit": "µg/mL"}, {"measurement": "MIC", "setting": "[3]; strain 7033607097, MCR (−)", "value": ">50", "unit": "µg/mL"}, {"measurement": "Colistin MIC in the presence of the compound", "setting": "[4]; [7]", "value": 6.25, "unit": "µg/mL"}, {"measurement": "Colistin MIC in the presence of the compound", "setting": "[4]; [8]", "value": 6.25, "unit": "µg/mL"}, {"measurement": "Colistin MIC in the presence of the compound", "setting": "[4]; [9]", "value": 6.25, "unit": "µg/mL"}, {"measurement": "Colistin MIC in the presence of the compound", "setting": "[4]; [10]", "value": 6.25, "unit": "µg/mL"}, {"measurement": "Colistin MIC in the presence of the compound", "setting": "[4]; [11]", "value": 6.25, "unit": "µg/mL"}, {"measurement": "Colistin MIC in the presence of the compound", "setting": "[4]; [12]", "value": 6.25, "unit": "µg/mL"}, {"measurement": "Colistin MIC in the presence of the compound", "setting": "[4]; [13]", "value": 6.25, "unit": "µg/mL"}, {"measurement": "Colistin MIC in the presence of the compound", "setting": "[5]; [14]", "value": 6.25, "unit": "µg/mL"}, {"measurement": "Colistin MIC in the presence of the compound", "setting": "[6]; [15]", "value": 6.25, "unit": "µg/mL"}, {"measurement": "Colistin MIC in the presence of the compound", "setting": "[6]; [16]", "value": 6.25, "unit": "µg/mL"}, {"measurement": "Colistin MIC in the presence of the compound", "setting": "[6]; [17]", "value": 6.25, "unit": "µg/mL"}]}]}
